Laboratory results published in ChEMBL document CHEMBL3102742, “Corallorazines from the myxobacterium Corallococcus coralloides” (J Nat Prod, 2014).
Active and inactive are the calls of the source. The rule behind the calls is not given here.

Assays:
[1] = species: Homo sapiens; test: Inhibition of chymotrypsin (unknown origin) up to 10 ug/ml
[2] = system: Microbotryum violaceum; test: Antifungal activity against Microbotryum violaceum up to 1 mg/ml by agar diffusion method; type: functional, organism-based
[3] = target: Cannabinoid receptor 2 (Homo sapiens) (UniProt P34972); test: Binding affinity to CB2 receptor (unknown origin) up to 10 ug/ml
[4] = target: Cathepsin S (Homo sapiens) (UniProt P25774); test: Inhibition of cathepsin S (unknown origin) up to 10 ug/ml
[5] = system: Escherichia coli; test: Antibacterial activity against Escherichia coli DSM 498 up to 1 mg/ml by agar diffusion method; type: functional, organism-based
[6] = target: Trypsin (Homo sapiens) (UniProt P07477+P07478+P35030); test: Inhibition of trypsin (unknown origin) up to 10 ug/ml; type: protein assay
[7] = target: Procathepsin L (Homo sapiens) (UniProt P07711); test: Inhibition of cathepsin L (unknown origin) up to 10 ug/ml
[8] = system: Aspergillus ruber; test: Antifungal activity against Eurotium rubrum DSM 62631 up to 1 mg/ml by agar diffusion method; type: functional
[9] = target: Cannabinoid receptor 1 (Homo sapiens) (UniProt P21554); test: Binding affinity to CB1 receptor (unknown origin) up to 10 ug/ml
[10] = target: T1, Neutrophil elastase (Homo sapiens) (UniProt P08246); test: Inhibition of human leucocyte elastase up to 10 ug/ml
T1 sequence (whole entry): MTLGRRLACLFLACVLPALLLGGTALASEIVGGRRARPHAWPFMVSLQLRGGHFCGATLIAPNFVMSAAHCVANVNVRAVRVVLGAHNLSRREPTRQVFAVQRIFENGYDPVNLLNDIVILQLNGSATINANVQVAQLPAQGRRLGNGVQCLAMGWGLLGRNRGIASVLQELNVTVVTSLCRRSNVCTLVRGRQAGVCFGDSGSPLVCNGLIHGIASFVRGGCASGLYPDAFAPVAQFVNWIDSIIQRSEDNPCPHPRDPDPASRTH

[11] = system: Mycotypha microspora; test: Antifungal activity against Mycotypha microspora up to 1 mg/ml by agar diffusion method; type: functional, organism-based
[12] = target: Cathepsin B (Homo sapiens) (UniProt P07858); test: Inhibition of cathepsin B (unknown origin) up to 10 ug/ml
[13] = system: Priestia megaterium; test: Antibacterial activity against Bacillus megaterium DSM 32 up to 1 mg/ml by agar diffusion method; type: functional, organism-based
[14] = target: Prothrombin (Homo sapiens) (UniProt P00734); test: Inhibition of human thrombin up to 10 ug/ml

Sequence of Cathepsin S (Homo sapiens) (P25774 115-331 limits assumed): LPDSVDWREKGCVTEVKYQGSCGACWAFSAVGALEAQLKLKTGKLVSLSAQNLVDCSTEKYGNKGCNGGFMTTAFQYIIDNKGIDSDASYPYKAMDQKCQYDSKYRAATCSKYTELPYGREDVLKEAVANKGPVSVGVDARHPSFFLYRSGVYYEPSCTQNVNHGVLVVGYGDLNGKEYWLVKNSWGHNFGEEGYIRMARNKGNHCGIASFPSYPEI
Sequence of Cannabinoid receptor 2 (Homo sapiens) (P34972 whole entry): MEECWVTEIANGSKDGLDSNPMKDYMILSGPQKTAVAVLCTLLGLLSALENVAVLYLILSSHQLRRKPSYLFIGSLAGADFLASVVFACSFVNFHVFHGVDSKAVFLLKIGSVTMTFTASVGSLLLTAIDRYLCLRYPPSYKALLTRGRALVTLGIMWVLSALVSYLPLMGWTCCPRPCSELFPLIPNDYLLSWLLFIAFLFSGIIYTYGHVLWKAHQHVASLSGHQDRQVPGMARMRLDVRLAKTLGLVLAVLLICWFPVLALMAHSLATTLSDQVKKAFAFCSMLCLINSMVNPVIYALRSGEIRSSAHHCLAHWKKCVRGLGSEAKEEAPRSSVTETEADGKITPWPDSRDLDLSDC
Sequence of Procathepsin L (Homo sapiens) (P07711 114-333 limits assumed): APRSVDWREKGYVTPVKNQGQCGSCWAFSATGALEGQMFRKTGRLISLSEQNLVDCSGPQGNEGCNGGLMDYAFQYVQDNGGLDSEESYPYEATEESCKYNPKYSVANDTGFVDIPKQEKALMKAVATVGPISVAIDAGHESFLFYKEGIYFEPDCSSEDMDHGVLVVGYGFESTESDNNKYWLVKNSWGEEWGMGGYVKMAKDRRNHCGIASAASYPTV
Sequence of Cannabinoid receptor 1 (Homo sapiens) (P21554 whole entry): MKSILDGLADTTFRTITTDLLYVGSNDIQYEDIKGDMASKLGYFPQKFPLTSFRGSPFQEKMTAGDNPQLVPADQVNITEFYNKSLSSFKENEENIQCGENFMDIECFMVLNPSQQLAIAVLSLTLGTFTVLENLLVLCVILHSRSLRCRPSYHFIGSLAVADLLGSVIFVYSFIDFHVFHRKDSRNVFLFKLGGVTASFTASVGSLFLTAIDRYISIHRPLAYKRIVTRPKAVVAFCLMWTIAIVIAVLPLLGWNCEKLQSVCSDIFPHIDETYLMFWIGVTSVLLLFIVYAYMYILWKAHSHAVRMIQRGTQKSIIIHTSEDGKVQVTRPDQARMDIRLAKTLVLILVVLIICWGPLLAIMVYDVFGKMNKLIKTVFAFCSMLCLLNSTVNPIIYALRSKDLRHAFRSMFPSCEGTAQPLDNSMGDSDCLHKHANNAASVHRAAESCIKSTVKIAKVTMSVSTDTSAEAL

inhibition [1]: inactive
Activity [3]: inactive
inhibition [4]: inactive
inhibition [6]: inactive
inhibition [7]: inactive
Activity [9]: inactive
inhibition [10]: inactive
inhibition [12]: inactive
inhibition [14]: inactive
Structure (SMILES): C=C1C(=O)N(C)CC(O)N1C(=O)/C=C/C=C\CC(C)C (centres undefined)
Activity [2]: inactive
Activity [5]: inactive
Activity [8]: inactive
Activity [11]: inactive
Activity [13]: inactive
